{
  "source": "patent US4346075A",
  "about": "“Antibiotic DC-11 and process for production thereof” (Kyowa Hakko Kogyo Co., Ltd., priority 1980, dated 1982)",
  "key": {"[1]": {"tested_on": "Sarcoma 180 ascites tumor", "assay": "effect on sarcoma 180 ascites tumor", "type": "in vivo, male ddY-strain mice", "conditions": "seven days after implantation", "method": "Six male ddY-strain mice having a weight of 20 g are used for each group as test animals; and 5×10^6 cells of Sarcoma 180 ascites tumor are implanted in the animals. After 24 hours following implantation, 0.2 ml phosphate buffered saline (PBS) containing DC-11 in various concentrations is administered intraperitoneally. PBS comprises 0.8 g/dl NaCl, 0.02 g/dl KCl, […] Na2 HPO4, 0.02 g/dl KH2 PO4 (pH 7.2).\nFor comparison, 0.2 ml PBS solution containing mitomycin C is administered to a group of amimals intraperitoneally at the same time as the test compound.\nSeven days after implantation, the average tumor volume (mm^3) and T/C (T: average tumor volume of test compound, C: that of control) are determined."}, "[2]": {"tested_on": "Lymphocytic leukemia P-388 tumor", "assay": "effect on Lymphocytic leukemia P-388 tumor", "type": "in vivo, male CDF1 mice", "conditions": "24 hours following implantation", "method": "Five male CDF1 mice having a weight of about 22 g are used for each group as test animals, and 1×10^6 cells of Lymphocytic leukemia P-388 tumor are implanted intraperitoneally in the test animals. Twenty-fours hours following implantation, 0.2 ml PBS solution containing DC-11 in various concentrations is administered intraperitoneally.\nFor comparison, 0.2 ml PBS solution containing mitomycin C is administered to a group of test animals intraperitoneally at the same time as the test compound.\nThe average survival period (ASP: days) and T/C (T: average survival days of the groups administered with test compound, C: average survival days of the control group) after implantation are shown in the following Table 6."}, "solubility": {"assay": "solubility", "type": "physicochemical"}, "[3]": {"tested_on": "Salmonella typhosa ATCC 9992", "assay": "in vitro antibacterial spectrum, disc method (pH 8.0)", "type": "cell-based", "conditions": "Salmonella enterica, pH 8, read-out: Minimum Inhibitory Concentration (MIC)", "from_the_text": "(§1) The in vitro antibacterial spectra of DC-11 determined by the disc method (pH 8.0) is illustrated in the following Table 4."}, "[4]": {"tested_on": "Klebsiella pneumoniae ATCC 10031", "assay": "in vitro antibacterial spectrum, disc method (pH 8.0)", "type": "cell-based", "conditions": "ATCC10031, Klebsiella pneumoniae ATCC 10031, disc method, read-out: Minimum Inhibitory Concentration (MIC)", "from_the_text": "as §1"}, "[5]": {"tested_on": "Staphylococcus aureus ATCC 6538 P", "assay": "in vitro antibacterial spectrum, disc method (pH 8.0)", "type": "cell-based", "conditions": "ATCC6538, read-out: Minimum Inhibitory Concentration (MIC)", "from_the_text": "as §1"}, "[6]": {"tested_on": "Bacillus subtilis No. 10707", "assay": "in vitro antibacterial spectrum, disc method (pH 8.0)", "type": "cell-based", "conditions": "Bacillus subtilis No. 10707, disc method, read-out: Minimum Inhibitory Concentration (MIC)", "from_the_text": "as §1"}, "[7]": {"tested_on": "Shigella sonnei ATCC 9290", "assay": "in vitro antibacterial spectrum, disc method (pH 8.0)", "type": "cell-based", "conditions": "ATCC9290, Shigella sonnei ATCC 9290, disc method, read-out: Minimum Inhibitory Concentration (MIC)", "from_the_text": "as §1"}, "Escherichia coli ATCC 26": {"tested_on": "Escherichia coli ATCC 26", "assay": "in vitro antibacterial spectrum, disc method (pH 8.0)", "type": "cell-based", "conditions": "ATCC26, Escherichia coli ATCC 26, disc method, read-out: Minimum Inhibitory Concentration (MIC)", "from_the_text": "as §1"}, "[8]": {"assay": "acute toxicity, intraperitoneal, mice", "conditions": "mouse, in vivo, ip, intraperitoneally"}},
  "data": [
    {"smiles": "CO[C@@]12[C@H](COC(N)=O)C3=C(C(=O)C(C)=C(N)C3=O)N1C[C@@H]1N[C@@H]12", "note": "[Mitomycin C, mitomycin C, reference compound]", "values": [
      {"measurement": "T/C (average tumor volume of test compound / control)", "setting": "[1]; 4.2 mg/Kg i.p.", "result": 0.32},
      {"measurement": "V: average tumor volume", "setting": "[1]; 4.2 mg/Kg i.p.", "result": 450, "unit": "mm^3"},
      {"measurement": "T/C (average survival days, test group / control group)", "setting": "[2]; 4.2 mg/Kg i.p.", "result": 1.51},
      {"measurement": "average survival period (ASP)", "setting": "[2]; 4.2 mg/Kg i.p.", "result": 14.2, "unit": "days"}
    ]},
    {"smiles": "COC(=O)NC1C(C)OC(OC2CC=C(C)C3C=CC4C(OC5CC(OC6CCC(OC7CC(O)C(OC8CCC(O)C(C)O8)C(C)O7)C(C)O6)C(OC(C)=O)C(C)O5)C(C)CC(C)C4C3(C)C(=O)C3=C(O)C4(CC(C=O)=CC(O)C4C=C2C)OC3=O)CC1(C)[N+](=O)[O-]", "note": "(centres unmarked) [DC-11]", "values": [
      {"measurement": "T/C (average tumor volume of test compound / control)", "setting": "[1]; 25 mg/Kg i.p.", "result": 0.78},
      {"measurement": "V: average tumor volume", "setting": "[1]; 25 mg/Kg i.p.", "result": 1096, "unit": "mm^3"},
      {"measurement": "T/C (average tumor volume of test compound / control)", "setting": "[1]; 50 mg/Kg i.p.", "result": 0.52},
      {"measurement": "V: average tumor volume", "setting": "[1]; 50 mg/Kg i.p.", "result": 730, "unit": "mm^3"},
      {"measurement": "T/C (average tumor volume of test compound / control)", "setting": "[1]; 70 mg/Kg i.p.", "result": 0.42},
      {"measurement": "V: average tumor volume", "setting": "[1]; 70 mg/Kg i.p.", "result": 590, "unit": "mm^3"},
      {"measurement": "Solubility", "setting": "solubility; benzene and water", "result": "slightly soluble"},
      {"measurement": "Solubility", "setting": "solubility; ethylether, petroleum ether and n-hexane", "result": "insoluble"},
      {"measurement": "Solubility", "setting": "solubility; methanol, ethanol, butanol, acetone, ethyl acetate and chloroform", "result": "soluble"},
      {"measurement": "MIC", "setting": "[3]", "result": "> 100", "unit": "µg/mL"},
      {"measurement": "MIC", "setting": "[4]", "result": "> 100", "unit": "µg/mL"},
      {"measurement": "MIC", "setting": "[5]", "result": 20, "unit": "µg/mL"},
      {"measurement": "MIC", "setting": "[6]", "result": 0.1, "unit": "µg/mL"},
      {"measurement": "MIC", "setting": "[7]", "result": "> 100", "unit": "µg/mL"},
      {"measurement": "MIC", "setting": "Escherichia coli ATCC 26", "result": "> 100", "unit": "µg/mL"},
      {"measurement": "LD50", "setting": "[8]", "result": 54, "unit": "mg/kg"},
      {"measurement": "T/C (average survival days, test group / control group)", "setting": "[2]; 6.25 mg/Kg i.p.", "result": 1.20},
      {"measurement": "average survival period (ASP)", "setting": "[2]; 6.25 mg/Kg i.p.", "result": 11.2, "unit": "days"},
      {"measurement": "T/C (average survival days, test group / control group)", "setting": "[2]; 12.5 mg/Kg i.p.", "result": 1.43},
      {"measurement": "average survival period (ASP)", "setting": "[2]; 12.5 mg/Kg i.p.", "result": 13.4, "unit": "days"},
      {"measurement": "T/C (average survival days, test group / control group)", "setting": "[2]; 25.0 mg/Kg i.p.", "result": 1.38},
      {"measurement": "average survival period (ASP)", "setting": "[2]; 25.0 mg/Kg i.p.", "result": 13.0, "unit": "days"}
    ]}
  ]
}
